Columns and labels:
[1] = Serum peak concentration of free PB in mice (literature, ref. 83, and scaling); type: in vivo; details: 4 mg/kg, estimated by scaling from the 3 mg/kg dose
Experimental: An appropriate starting dose of free PB in mice is estimated by parameter scaling (ref 57; incorporated by reference in its entirety) to attain Cmax exposures that approximate concentrations obtained in human serum. […] Studies are initiated with a PB dose of 4 mg/kg in mice given by tail vein injection every 12 hr. Mice are monitored for 7 days for signs of toxicity (altered respiratory rate, lack of grooming, decreased activity, weight loss). The dose is increased by 1 mg/kg increments until toxicity is observed. Doses that cause more than temporary symptoms are considered the minimal toxic dose, and the next lower dose will be designated the MTD. The MTD of […] is determined in the same manner, starting with the PB molar equivalent MTD of […].

[2] = rats, PB alone; cited from earlier work
[3] = mice, 3 mg/kg PB dose; cited from earlier work
PA strain PA99 = assay: Mouse PA abscess model, treatment injected at the site of infection; type: in vivo, Pseudomonas aeruginosa; details: mice, data not shown
Experimental: FIG. 17. AuNP-PB administration at time of infection with PA prevents abscess formation. Mice were injected subcutaneously (SC) with 2×10^6 CFU of PA strain PA99 in 25 ul of PBS, and were then immediately treated with 50 ul PBS (SC), AuNP-PB (SC, equivalent of 2 ug PB), AuNP (without PB, SC, equivalent amount), or free PB (1 ug IV). SC injections were at the site of the abscess. Abscess areas were measured at 17 hr post-infection. Each symbol represents a distinct mouse. (A) Injections 5 min post-infection; (B) Injections 2 hr post-infection.
Experiments conducted during development of embodiments herein employed a mouse PA abscess model in which the heterogenous AuNP-PB are injected directly into the site of infection. This assay has the advantage of determining whether AuNP-PB kill bacteria in vivo in the absence of PK concerns.

PA = details: free PB for PA; cited from earlier work

For polymyxin B [PB], the Cmax [1] is given as 5300 ng/mL, the Mean half-life [2] is given as 1.5 h and the “Mean peaks (serum)” value [3] is given as about 4 mg/L. For the same substance, the Bacterial loads (PA strain PA99) was “below the limit of detection” and the MIC (PA) was 0.5 to 1.0 µg/mL.

From US10688195B2, “Polymyxin B-coated nanoparticles” (Northwestern University, priority 2016, dated 2020)
